Molecules are shown by their SMILES.

Experimental findings from patent US8541002B2, “Vaccine for treatment and prevention of herpes simplex virus infection” (Agenus Inc., priority 2003, dated 2013) are described below.

This data set can be described thus: Turbidity assay for solubility of the peptides. The conditions noted are these: solubility of the antigenic peptides in water or Dimethyl Sulfoxide (DMSO). In kind it is physicochemical. The method, then:
A number of antigenic peptides of the invention were synthesized by chemical synthesis as described in Section 5.1.1.
A turbidity assay was used to assess the solubility of the peptides. Turbidity assays used either a Varian Cary double-beam spectrophotometer, or a Molecular Devices Spectromax absorbance plate reader (for high throughput experiments). The spectrophotometer assay read every 2 nm between 340 nm and 360 nm, and averaged the values. Samples were analyzed in duplicate using a quartz micro-cuvette that holds about 200 uL. The plate reader assay used a 96-well plate format that read every 4 nm between 340 nm and 360 nm and averaged those values. Samples in this assay were run in triplicate.

Consider `CC[C@H](C)[C@H](NC(=O)[C@H](CC(C)C)NC(=O)[C@H](CO)NC(=O)[C@@H](NC(=O)[C@@H](NC(=O)[C@H](Cc1ccc(O)cc1)NC(=O)[C@H](CCCCN)NC(=O)[C@@H](NC(=O)[C@H](Cc1ccc(O)cc1)NC(=O)[C@H](CCCNC(=N)N)NC(=O)[C@H](Cc1c[nH]cn1)NC(=O)[C@H](CCC(=O)O)NC(=O)[C@@H](NC(=O)[C@H](CC(C)C)NC(=O)[C@H](CCC(=O)O)NC(=O)[C@H](C)NC(=O)[C@@H](NC(=O)[C@@H](N)[C@@H](C)O)[C@@H](C)CC)C(C)C)C(C)C)C(C)C)[C@@H](C)CC)C(=O)N[C@@H](CO)C(=O)N1CCC[C@H]1C(=O)N[C@@H](CCCCN)C(=O)N[C@@H](CCC(=O)O)C(=O)N[C@@H](CCCNC(=N)N)C(=O)NCC(=O)N1CCC[C@H]1C(=O)N[C@@H](Cc1c[nH]c2ccccc12)C(=O)N[C@H](C(=O)N[C@@H](CC(C)C)C(=O)N[C@@H](CC(C)C)C(=O)N[C@@H](CCCCN)C(=O)N[C@@H](CCCNC(=N)N)C(=O)N[C@@H](CC(C)C)C(=O)N1CCC[C@H]1C(=O)N[C@H](C(=O)N[C@@H](Cc1ccc(O)cc1)C(=O)O)[C@@H](C)CC)[C@@H](C)O` [UL41-2], for which the Solubility entry is reported as “water”.
The value for `CC[C@H](C)[C@H](NC(=O)[C@H](C)NC(=O)[C@H](CCC(=O)O)NC(=O)[C@H](CCCNC(=N)N)NC(=O)[C@H](CC(=O)O)NC(=O)[C@H](Cc1ccc(O)cc1)NC(=O)[C@H](CO)NC(=O)[C@@H]1CCCN1C(=O)[C@H](Cc1ccc(O)cc1)NC(=O)[C@H](CCCNC(=N)N)NC(=O)[C@H](CCCNC(=N)N)NC(=O)[C@H](CCC(N)=O)NC(=O)[C@H](Cc1ccc(O)cc1)NC(=O)[C@H](CCCCN)NC(=O)[C@@H](NC(=O)[C@@H](NC(=O)[C@H](CC(C)C)NC(=O)[C@@H](NC(=O)[C@H](Cc1ccc(O)cc1)NC(=O)[C@H](CCSC)NC(=O)[C@@H](NC(=O)[C@H](CC(N)=O)NC(=O)[C@H](Cc1c[nH]c2ccccc12)NC(=O)[C@H](CC(C)C)NC(=O)[C@H](CC(=O)O)NC(=O)[C@@H](NC(=O)[C@H](C)NC(=O)[C@@H](NC(=O)[C@@H]1CCCN1C(=O)[C@@H](NC(=O)[C@H](Cc1ccccc1)NC(=O)[C@H](Cc1ccc(O)cc1)NC(=O)CN)[C@@H](C)O)[C@@H](C)CC)C(C)C)C(C)C)[C@@H](C)O)C(C)C)C(C)C)C(=O)N[C@H](C(=O)N[C@@H](CC(C)C)C(=O)O)[C@@H](C)O` [UL41-3] was “DMSO”; that for `CC(C)C[C@H](NC(=O)[C@H](CO)NC(=O)[C@@H]1CCCN1C(=O)[C@H](CC(=O)O)NC(=O)[C@H](CS)NC(=O)[C@H](CC(=O)O)NC(=O)CNC(=O)[C@H](C)NC(=O)[C@@H]1CCCN1C(=O)[C@@H](N)CC(=O)O)C(=O)N[C@@H](Cc1c[nH]cn1)C(=O)N[C@H](C(=O)N[C@@H](CC(C)C)C(=O)N[C@@H](CC(C)C)C(=O)N[C@@H](CCCNC(=N)N)C(=O)N1CCC[C@H]1C(=O)N[C@H](C(=O)N[C@@H](CC(C)C)C(=O)N[C@@H](CC(C)C)C(=O)N1CCC[C@H]1C(=O)N[C@@H](CCCCN)C(=O)N[C@@H](CC(C)C)C(=O)N[C@@H](CC(C)C)C(=O)N[C@H](C(=O)N[C@@H](CCCNC(=N)N)C(=O)N[C@@H](C)C(=O)N1CCC[C@H]1C(=O)N[C@@H](Cc1ccccc1)C(=O)N[C@@H](CCCCN)C(=O)N[C@@H](CO)C(=O)NCC(=O)N[C@@H](C)C(=O)N[C@@H](C)C(=O)N[C@@H](C)C(=O)N[C@@H](C)C(=O)O)C(C)C)[C@@H](C)O)C(C)C` [UL46-1] was “water”.
With `CSCC[C@H](NC(=O)[C@H](Cc1c[nH]c2ccccc12)NC(=O)[C@H](CO)NC(=O)[C@H](C)NC(=O)[C@H](Cc1c[nH]c2ccccc12)NC(=O)[C@H](Cc1c[nH]cn1)NC(=O)[C@H](Cc1ccc(O)cc1)NC(=O)[C@H](CC(C)C)NC(=O)[C@@H](NC(=O)[C@H](CO)NC(=O)[C@@H](NC(=O)[C@H](Cc1ccc(O)cc1)NC(=O)[C@H](C)NC(=O)[C@H](CC(C)C)NC(=O)[C@H](CC(C)C)NC(=O)[C@H](CCC(=O)O)NC(=O)[C@H](CO)NC(=O)[C@H](CC(C)C)NC(=O)[C@H](CCCNC(=N)N)NC(=O)[C@H](CC(C)C)NC(=O)[C@H](C)NC(=O)[C@@H](NC(=O)[C@H](CC(=O)O)NC(=O)[C@@H](NC(=O)[C@H](CO)NC(=O)[C@@H]1CCCN1C(=O)[C@H](CCCNC(=N)N)NC(=O)[C@H](CO)NC(=O)[C@@H]1CCCN1C(=O)[C@H](CC(=O)O)NC(=O)[C@H](C)N)[C@@H](C)O)[C@@H](C)O)C(C)C)C(C)C)C(=O)N[C@@H](CC(C)C)C(=O)N[C@@H](Cc1c[nH]c2ccccc12)C(=O)N[C@H](C(=O)N[C@@H](C)C(=O)O)[C@@H](C)O` [UL46-2] the entry was “DMSO”; with `CSCC[C@H](NC(=O)[C@@H]1CCCN1C(=O)CNC(=O)[C@H](C)NC(=O)CNC(=O)[C@H](CCCNC(=N)N)NC(=O)[C@H](CCCNC(=N)N)NC(=O)[C@@H](N)Cc1ccccc1)C(=O)N[C@@H](CCCNC(=N)N)C(=O)N[C@@H](C)C(=O)N[C@@H](CCCNC(=N)N)C(=O)N1CCC[C@H]1C(=O)N[C@@H](CCCNC(=N)N)C(=O)NCC(=O)N[C@@H](CCC(=O)O)C(=O)N[C@H](C(=O)N[C@@H](CCCNC(=N)N)C(=O)N[C@@H](Cc1ccccc1)C(=O)N[C@@H](CC(C)C)C(=O)N[C@@H](Cc1c[nH]cn1)C(=O)N[C@@H](Cc1ccc(O)cc1)C(=O)N[C@@H](CC(=O)O)C(=O)N[C@@H](CCC(=O)O)C(=O)N[C@@H](C)C(=O)NCC(=O)N[C@@H](Cc1ccc(O)cc1)C(=O)N[C@@H](C)C(=O)N[C@@H](CC(C)C)C(=O)N[C@@H](Cc1ccc(O)cc1)C(=O)N[C@@H](CCCNC(=N)N)C(=O)N[C@@H](CC(=O)O)C(=O)N[C@@H](CO)C(=O)N[C@@H](CO)C(=O)N[C@@H](CO)C(=O)N[C@@H](CC(=O)O)C(=O)O)C(C)C` [UL49-1], “water”; with `CC(C)C[C@H](NC(=O)[C@H](CCCNC(=N)N)NC(=O)CNC(=O)[C@@H](NC(=O)[C@H](C)NC(=O)[C@H](C)NC(=O)[C@H](CS)NC(=O)[C@H](Cc1ccccc1)NC(=O)[C@@H](NC(=O)[C@H](CCCNC(=N)N)NC(=O)[C@H](CCCCN)NC(=O)[C@H](CC(N)=O)NC(=O)[C@H](Cc1ccccc1)NC(=O)CNC(=O)[C@H](C)NC(=O)[C@@H](NC(=O)[C@H](CCCNC(=N)N)NC(=O)[C@@H]1CCCN1C(=O)[C@@H](NC(=O)[C@H](Cc1c[nH]c2ccccc12)NC(=O)[C@@H]1CCCN1C(=O)[C@H](C)NC(=O)[C@@H](NC(=O)[C@@H]1CCCN1C(=O)[C@@H](N)CO)[C@@H](C)O)[C@@H](C)O)C(C)C)C(C)C)C(C)C)C(=O)N[C@@H](C)C(=O)N[C@@H](C)C(=O)N[C@H](C(=O)N[C@@H](Cc1c[nH]cn1)C(=O)N[C@@H](C)C(=O)N[C@@H](CCCNC(=N)N)C(=O)N[C@@H](CC(C)C)C(=O)N[C@@H](C)C(=O)N[C@@H](C)C(=O)N[C@H](C(=O)O)C(C)C)[C@@H](C)O` [UL49-2], “water”.
The value for `CC[C@H](C)[C@H](NC(=O)[C@@H](NC(=O)[C@@H]1CCCN1C(=O)[C@@H](N)CC(=O)O)[C@@H](C)CC)C(=O)NCC(=O)N[C@H](C(=O)N[C@@H](C)C(=O)N[C@@H](C)C(=O)N[C@@H](C)C(=O)N[C@H](C(=O)N[C@@H](CC(C)C)C(=O)N[C@@H](CCC(=O)O)C(=O)N[C@@H](CC(N)=O)C(=O)N[C@@H](CC(C)C)C(=O)N[C@@H](C)C(=O)N[C@H](C(=O)N[C@@H](CCCNC(=N)N)C(=O)N[C@@H](CC(C)C)C(=O)N[C@@H](CCCNC(=N)N)C(=O)N1CCC[C@H]1C(=O)N[C@@H](Cc1ccccc1)C(=O)N[C@@H](CC(C)C)C(=O)N[C@@H](CCC(N)=O)C(=O)N[C@@H](CS)C(=O)N[C@@H](Cc1ccc(O)cc1)C(=O)N[C@@H](CC(C)C)C(=O)N[C@@H](CCCCN)C(=O)N[C@@H](C)C(=O)N[C@@H](CCCNC(=N)N)C(=O)NCC(=O)N[C@@H](CC(C)C)C(=O)N[C@@H](CS)C(=O)NCC(=O)N[C@@H](CC(C)C)C(=O)N[C@@H](CC(=O)O)C(=O)O)[C@@H](C)O)C(C)C)[C@@H](C)O` [UL54-1] was “water”; that for `CC[C@H](C)[C@H](NC(=O)[C@H](CC(=O)O)NC(=O)[C@H](CCCCN)NC(=O)[C@@H](NC(=O)[C@H](CC(=O)O)NC(=O)[C@H](CO)NC(=O)[C@H](CC(C)C)NC(=O)[C@H](CCCNC(=N)N)NC(=O)[C@H](CCCNC(=N)N)NC(=O)[C@H](CCCNC(=N)N)NC(=O)[C@H](CO)NC(=O)[C@H](CS)NC(=O)[C@H](CC(C)C)NC(=O)[C@H](CC(=O)O)NC(=O)[C@H](CC(=O)O)NC(=O)[C@@H](N)CC(C)C)[C@@H](C)CC)C(=O)N[C@@H](C)C(=O)N[C@@H](CO)C(=O)N[C@@H](Cc1ccccc1)C(=O)N[C@H](C(=O)N[C@@H](CC(C)C)C(=O)N[C@H](C(=O)N[C@H](C(=O)N[C@@H](CC(C)C)C(=O)N[C@@H](C)C(=O)N[C@@H](CCCNC(=N)N)C(=O)N[C@@H](CC(C)C)C(=O)N[C@@H](C)C(=O)N[C@@H](CC(N)=O)C(=O)N[C@@H](CCCNC(=N)N)C(=O)N[C@H](C(=O)N[C@@H](CCC(=O)O)C(=O)N[C@@H](CCCNC(=N)N)C(=O)NCC(=O)N[C@H](C(=O)O)C(C)C)C(C)C)[C@@H](C)CC)C(C)C)C(C)C` [UL54-2] was “water”; that for `CSCC[C@H](NC(=O)[C@H](CC(C)C)NC(=O)[C@H](Cc1ccccc1)NC(=O)CNC(=O)[C@H](CC(C)C)NC(=O)[C@H](CC(N)=O)NC(=O)[C@H](CC(=O)O)NC(=O)[C@H](CCC(=O)O)NC(=O)[C@H](CO)NC(=O)[C@@H](NC(=O)[C@H](C)NC(=O)[C@H](CO)NC(=O)[C@H](Cc1ccccc1)NC(=O)[C@H](CO)NC(=O)[C@H](CC(=O)O)NC(=O)[C@H](Cc1ccc(O)cc1)NC(=O)[C@H](Cc1ccc(O)cc1)NC(=O)[C@H](CO)NC(=O)[C@H](Cc1c[nH]c2ccccc12)NC(=O)[C@@H](N)CCCNC(=N)N)C(C)C)C(=O)N[C@@H](Cc1c[nH]cn1)C(=O)N[C@@H](C)C(=O)N1CCC[C@H]1C(=O)N[C@@H](C)C(=O)N[C@@H](Cc1ccccc1)C(=O)N[C@@H](CCC(=O)O)C(=O)N[C@H](C(=O)N[C@@H](C)C(=O)NCC(=O)N[C@H](C(=O)N[C@@H](Cc1ccc(O)cc1)C(=O)N[C@@H](CC(C)C)C(=O)N[C@@H](CCCNC(=N)N)C(=O)N[C@@H](CC(C)C)C(=O)N[C@H](C(=O)O)C(C)C)[C@@H](C)O)[C@@H](C)O` [US06-1] was “DMSO”.
